Measured values reported in US4883863A, “Tripeptide derivatives and antiplasmin agents containing the same” (Nitto Boseki Co., Ltd., priority 1987, dated 1989).
Where a name gives a salt, the structure may show the parent alone. Where a SMILES comes first, the peptide text is derived from it. [ ]: non-standard residue; d: D form. The star is where a group is joined. Tos = Cc1ccc(S(=O)(=O)*)cc1; Moc = COC(=O)*; For = O=C*

Legend:
Type in all cases: biochemical
[1] = target: T1, trypsin (Bos taurus, UniProt P00760); experiment: Trypsin-inhibiting activity, synthetic substrate PS-915; settings: Table 4; PS-915, pH 8.0, 37° C.
T1 construct: purchased Worthington 3703
T1 sequence (P00760 24-246): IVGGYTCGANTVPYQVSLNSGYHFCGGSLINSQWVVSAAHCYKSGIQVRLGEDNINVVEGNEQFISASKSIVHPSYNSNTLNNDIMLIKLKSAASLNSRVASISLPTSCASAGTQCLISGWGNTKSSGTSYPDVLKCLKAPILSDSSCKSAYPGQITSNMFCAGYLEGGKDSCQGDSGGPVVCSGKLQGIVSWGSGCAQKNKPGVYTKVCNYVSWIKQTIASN
From the text: (§1) Synthetic substrates used for testing the inhibitory activity of the inhibitors on decomposition of substrates by the enzymes were as follows. For plasmin, PS-994 (H--D--Lys(Tos)--Phe--Lys--CHA·2HCl, mfd. by NITTO BOSEKI Co., Ltd.) was used; for thrombin and trypsin, PS-915 (H--D--Phe--Pro--Arg--CHA·2HCl, mfd. by NITTO BOSEKI Co., Ltd.); for Factor Xa, PS-2000 (Z--D--Lys--(HCO)--Gly--Arg--CHA·HCl, mfd. by NITTO BOSEKI Co., Ltd.); and for kallikrein, S-2302 (H--D--Pro--Phe--Arg--pNA, mfd., by Kabi Co., Ltd.).
(§2) As plasmin, standard plasmin of Sankyo Color Test α2 -D1 Kit was used in an amount of 0.3CU/ml. As thrombin, that of Sankyo Color Test ATIII kit was used in an amount of 1.2 NIHU/ml. As trypsin, that of cord 3703 of Worthington was used in an amount of 2 μg/ml. As human Factor Xa, that of Boehringer Manheim Co., Ltd. was used in an amount of 0.25 U/ml. As human plasma kallikrein, that of Kabi Co., Ltd. was used in an amount of 0.12 U/ml. As terminating color reagents, those for Sankyo Color Test Kit were used. The reactions were carried out at 37° C. unless otherwise specified.
Each of aqueous solutions (0.1 ml) of the inhibitors which solutions were various in their respective concentrations was added to 0.5 ml of a buffer solution (a 150 mM aqueous sodium chloride solution containing 150 mM Tris, pH 8.0), and the resulting solution was heated for 5 minutes. Then, 0.1 ml of a trypsin solution was added, followed by incubation for 5 minutes. Subsequently, 0.1 ml of a PS-915 solution (10 mM) was added, followed by incubation for 5 minutes. Thereafter, 2 ml of terminating color reagent [containing […] of soybean trypsin inhibitor (No. T-9003, available from Sigma Chemical Co.)] was added. After standing for 10 minutes, absorbance at 700 nm was measured and IC50 was determined in the manner described above.

[2] = target: T2, plasmin (Homo sapiens, UniProt P00747); experiment: Inhibitory activity on fibrinogen decomposition by plasmin (natural substrate); parameters: purchased Sankyo (Color Test α2 -D1 Kit); settings: Table 4; 2% fibrinogen, pH 7.2, 37° C.
Method: The determination was carried out by a modification of the method described in Takaaki Aoyagi. "Koso Sogai Busshitsu (Enzyme Inhibiting Substances)" Kyoritsu Zensho, p. 12.
To 0.3 ml of phosphate buffer (pH 7.2) was added 0.1 ml of an aqueous solution of each inhibitor, and the resulting solution was heated at 37° C. for 5 minutes. Then, 0.1 ml of a plasmin solution (12 CU/ml) was added, followed by incubation for 5 minutes. Subsequently, 0.7 ml of phosphate buffer (pH 7.2) containing 2% fibrinogen was added, followed by incubation for 15 minutes. After completion of the reaction, a 12% aqueous hydrochloride acid solution (1.5 ml) containing 6% trichloroacetic acid was added, and the resulting mixture was lightly shaken, allowed to stand at room temperature for 15 minutes, and then centrifuged (3000 r.p.m., 10 minutes). The absorbance of the supernatant was measured at 280 nm, and a concentration of the inhibitor at which the absorbance was the same as when the amount of the enzyme added was reduced by half was determined as IC50.
Target sequence in this assay (P00747 581-810 limits assumed, species assumed): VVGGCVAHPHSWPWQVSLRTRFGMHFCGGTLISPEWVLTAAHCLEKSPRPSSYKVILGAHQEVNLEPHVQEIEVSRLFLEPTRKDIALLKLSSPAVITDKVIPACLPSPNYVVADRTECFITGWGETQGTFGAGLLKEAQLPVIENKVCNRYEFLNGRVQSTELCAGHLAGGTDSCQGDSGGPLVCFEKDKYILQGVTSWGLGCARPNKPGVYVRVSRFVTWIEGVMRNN
Target sequence in this assay (P00747 97-580 partner limits assumed, species assumed): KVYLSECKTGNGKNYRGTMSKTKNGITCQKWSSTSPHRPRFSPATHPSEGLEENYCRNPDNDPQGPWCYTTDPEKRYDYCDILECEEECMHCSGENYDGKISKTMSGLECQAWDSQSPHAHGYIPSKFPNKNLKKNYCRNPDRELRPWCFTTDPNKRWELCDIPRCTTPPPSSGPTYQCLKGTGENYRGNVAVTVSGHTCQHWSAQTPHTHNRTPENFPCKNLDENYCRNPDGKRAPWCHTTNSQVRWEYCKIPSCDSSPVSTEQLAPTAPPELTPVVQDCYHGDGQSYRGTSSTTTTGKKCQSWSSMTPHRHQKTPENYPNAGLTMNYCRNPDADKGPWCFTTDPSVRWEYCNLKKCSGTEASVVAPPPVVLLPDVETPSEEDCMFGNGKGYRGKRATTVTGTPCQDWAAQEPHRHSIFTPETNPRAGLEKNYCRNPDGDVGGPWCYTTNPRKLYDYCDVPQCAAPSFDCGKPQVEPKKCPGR

[3] = target: T2, plasmin; experiment: Inhibitory activity on fibrin decomposition by plasmin (natural substrate); parameters: Standard human serum (0.1 ml); from tissue; settings: Table 4; concentration doubling time for complete dissolution, 25° C.
Method: The determination was carried out by the method of Okamoto et al. (see Keio Journal of Medicine, vol. 11, p. 105 (1962).
Standard human serum (0.1 ml), 0.4 ml of each of 1/20 M potassium phosphate sodium physiological salt buffer solutions (pH 7.4) containing various concentrations of each inhibitor, and 0.1 ml of a solution of streptokinase in physiological saline (1000 U/ml) were stirred and then cooled at 0° C. for 10 minutes. Thereto was added 0.05 ml of a solution of thrombin in physiological saline (100 NIHU/ml, mfd. by Parke Davis Co. Ltd.) at 0° C. After standing for 1 minute, 0.3 ml of a 0.33% solution of bovine fibrinogen (F-4753, available from Sigma Chemical Co.) in physiological saline was added, and the resulting mixture was allowed to stand at 25° C. The solubility was measured every minute by the standard of judgement of Nakamura (see Allergy, vol. 5, p. 1 (1956)) and the time required for complete dissolution was determined. A concentration of the inhibitor at which said time is twice that required in the absence of the inhibitor was determined as IC50.
Target sequence in this assay (P00747 581-810 limits assumed): as the sequence (P00747 581-810 limits assumed, species assumed) above
Target sequence in this assay (P00747 97-580 partner limits assumed): as the sequence (P00747 97-580 partner limits assumed, species assumed) above

[4] = target: T2, plasmin; experiment: Plasmin-inhibiting activity, synthetic substrate PS-994; parameters: purchased Sankyo (Color Test α2 -D1 Kit); settings: Table 4; PS-994, pH 7.8, 37° C.
From the text: as §1, §2
Target sequence in this assay (P00747 581-810 limits assumed, species assumed): as the sequence (P00747 581-810 limits assumed, species assumed) above
Target sequence in this assay (P00747 97-580 partner limits assumed, species assumed): as the sequence (P00747 97-580 partner limits assumed, species assumed) above
Each of aqueous solutions (0.1 ml) of the inhibitors which solutions were various in their respective concentrations was added to 0.4 ml of a buffer solution (a 150 mM aqueous sodium chloride solution containing 100 mM Tris, pH 7.8), and the resulting solution was heated for 5 minutes. To this solution was added 0.2 ml of plasmin solution, followed by incubation for 5 minutes, and then 0.1 ml of a PS-994 solution (10 mM) was added, and then incubated for 5 minutes. After completion of the reaction, 2.0 ml of terminating color reagent was added, and after standing for 10 minutes, absorbance at 700 nm was measured. A concentration of the inhibitor in the reaction system at which the absorbance was one-half that obtained in the absence of the inhibitor was determined as IC50.

IC50 [1] [nM]	IC50 [2] [nM]	IC50 [3] [nM]	IC50 [4] [nM]	SMILES
7800	190	240	96	Cc1ccc(S(=O)(=O)NCCCC[C@@H](NC=O)C(=O)N[C@@H](Cc2ccccc2)C(=O)N[C@H](C=O)CCCCN)cc1 [Compound 4, N-α-Formyl-N-ε-(p-tosyl)-D-lysyl-L-phenylalanyl-L-lysinal hydrochloride] (For-[dK](Tos)-Phe-Lys-aldehyde)
2500	130	230	7.9	COC(=O)N[C@H](CCCCNS(=O)(=O)c1ccc(C)cc1)C(=O)N[C@@H](Cc1ccccc1)C(=O)N[C@H](C=O)CCCCN [Compound 2, N-α-Methoxycarbonyl-N-ε-(p-tosyl)-D-lysyl-L-phenylalanyl-L-lysinal hydrochloride] (Moc-[dK](Tos)-Phe-Lys-aldehyde)
